# Test results as given in PubChem BioAssay AID2060491 (Molecular Pharmacology Branch, DTP, NCI, 2025).
# Tested on: 857933-349-R-J2-PDC complex spheroids, viability
# Test: Anticancer human tumor 857933-349-R-J2-PDC patient-derived colon adenocarcinoma cell line growth inhibition [GQUAD]
# Conditions: for IC50: curve of first compound; for viability, T/C: stronger effect = lower value
# Procedure, shortened: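 Multi-cell-type spheroids of tumor cells with HUVEC and mesenchymal stem cells, treated with drug combinations. Concentrations descend in half-log steps from near clinical Cmax, or from 10 microM where Cmax is unknown; viability read-out.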
# 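Note: spheroids exposed to compounds for one week before readout.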
# 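Throughout, for viability, T/C: percent viability relative to vehicle DMSO wells taken as 100%.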
compound,measurement,setting,value
CCc1c2c(nc3ccc(O)cc13)-c1cc3c(c(=O)n1C2)COC(=O)[C@]3(O)CC + Cc1cnc(CNC(=O)c2c(=O)c3ccc(N4CCCN(C)CC4)nc3n3c2sc2ccccc23)cn1,IC50,second compound 0.0316 µM,3.53 nM
same,IC50,second compound 0.1 µM,3.89 nM
same,IC50,second compound 0.316 µM,< 0.999 nM
same,IC50,second compound 1 µM,< 0.999 nM
same,IC50,second compound 3.16 µM,< 0.999 nM
same,IC50,second compound 10 µM,< 0.999 nM
same,"viability, T/C","second compound 0.0316 µM, first compound 0.000999 µM",89%
same,"viability, T/C","second compound 0.0316 µM, first compound 0.00316 µM",43.6%
same,"viability, T/C","second compound 0.0316 µM, first compound 0.00999 µM",41.9%
same,"viability, T/C","second compound 0.0316 µM, first compound 0.0316 µM",16.5%
same,"viability, T/C","second compound 0.0316 µM, first compound 0.0999 µM",10.4%
same,"viability, T/C","second compound 0.0316 µM, first compound 0.316 µM",8.23%
same,"viability, T/C","second compound 0.1 µM, first compound 0.000999 µM",55.4%
same,"viability, T/C","second compound 0.1 µM, first compound 0.00316 µM",55.9%
same,"viability, T/C","second compound 0.1 µM, first compound 0.00999 µM",31.9%
same,"viability, T/C","second compound 0.1 µM, first compound 0.0316 µM",11%
same,"viability, T/C","second compound 0.1 µM, first compound 0.0999 µM",6.26%
same,"viability, T/C","second compound 0.1 µM, first compound 0.316 µM",3.59%
same,"viability, T/C","second compound 0.316 µM, first compound 0.000999 µM",25.9%
same,"viability, T/C","second compound 0.316 µM, first compound 0.00316 µM",17.3%
same,"viability, T/C","second compound 0.316 µM, first compound 0.00999 µM",5.28%
same,"viability, T/C","second compound 0.316 µM, first compound 0.0316 µM",2.97%
same,"viability, T/C","second compound 0.316 µM, first compound 0.0999 µM",2.84%
same,"viability, T/C","second compound 0.316 µM, first compound 0.316 µM",0.55%
same,"viability, T/C","second compound 1 µM, first compound 0.000999 µM",3.82%
same,"viability, T/C","second compound 1 µM, first compound 0.00316 µM",3.55%
same,"viability, T/C","second compound 1 µM, first compound 0.00999 µM",2.71%
same,"viability, T/C","second compound 1 µM, first compound 0.0316 µM",1.95%
same,"viability, T/C","second compound 1 µM, first compound 0.0999 µM",1.2%
same,"viability, T/C","second compound 1 µM, first compound 0.316 µM",0.14%
same,"viability, T/C","second compound 3.16 µM, first compound 0.000999 µM",2.34%
same,"viability, T/C","second compound 3.16 µM, first compound 0.00316 µM",1.9%
same,"viability, T/C","second compound 3.16 µM, first compound 0.00999 µM",1.86%
same,"viability, T/C","second compound 3.16 µM, first compound 0.0316 µM",0.77%
same,"viability, T/C","second compound 3.16 µM, first compound 0.0999 µM",0.1%
same,"viability, T/C","second compound 3.16 µM, first compound 0.316 µM",0.13%
same,"viability, T/C","second compound 10 µM, first compound 0.000999 µM",1.54%
same,"viability, T/C","second compound 10 µM, first compound 0.00316 µM",0.97%
same,"viability, T/C","second compound 10 µM, first compound 0.00999 µM",0.21%
same,"viability, T/C","second compound 10 µM, first compound 0.0316 µM",0.17%
same,"viability, T/C","second compound 10 µM, first compound 0.0999 µM",0.16%
same,"viability, T/C","second compound 10 µM, first compound 0.316 µM",0.19%
